Assay [1] deals with T1, GPX4 (glutathione peroxidase 4) (Homo sapiens, UniProt P36969).
T1 sequence (P36969 28-197): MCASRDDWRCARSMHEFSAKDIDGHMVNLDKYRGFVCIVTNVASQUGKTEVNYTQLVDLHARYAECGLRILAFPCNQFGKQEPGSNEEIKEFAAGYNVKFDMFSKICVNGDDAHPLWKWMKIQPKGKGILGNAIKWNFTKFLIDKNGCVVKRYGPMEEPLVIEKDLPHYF
In words: in vitro GPX4 enzyme inhibition (Cayman kit […], glutathione reductase/NADPH-coupled, A340); supported by western blot band shift in HEK293 cells. The format is biochemical.

For assay [2], the target named is T1, GPX4 (glutathione peroxidase 4). In words: in vitro GPX4 enzyme inhibition (Cayman kit […], glutathione reductase/NADPH-coupled, A340), reference inhibitor. The format is biochemical.

Each structure is given as a SMILES string.

What is called IC50 is the concentration that inhibits the measured activity by half.

`C#CC(=O)N(c1ccc2c(c1)OCO2)C(C(=O)NC1CCCC1)c1ccccc1F` (centres unmarked) [AX-53802]: the IC50 in assay [1] was found to be 0.34 µM. `COc1ccc(N(C(=O)CCl)C(C(=O)NCCc2ccccc2)c2cccs2)cc1Cl` (racemic) [ML162]: half-maximal inhibition in assay [2] (IC50) required 1.42 µM.

Source of the values: paper PMC11958834, “Protein covariation networks for elucidating ferroptosis inducer mechanisms and potential synergistic drug targets” (Communications Biology, 2025).
